Assay results as given in patent publication EP4483954A1 (Masarykova Univerzita, priority 2023, dated 2025).

Assays:
Type in all cases: biochemical
[1] = biological target: T1, CDKL4(h) (Homo sapiens, UniProt Q5MAI5); assay: radiometric kinase assay (KinaseProfiler, Eurofins), CDKL4; settings: in vitro radiometric kinase assay, tested at 1 nM to 10 000 nM, no pre-incubation; read-out: inhibitory activities (IC50 values) CDKL4
T1 construct: purchased Eurofins (KinaseProfiler)
Experimental: (§1) The compounds were profiled in the radiometric assays (KinaseProfiler, Eurofins).
(§2) Briefly, kinases were diluted in the buffer shown below prior to addition to the reaction mix: • CDKL3, TAF1L: 20 mM Tris/HCl pH 8.5, 0.2 mM EDTA, 0.1% β-mercaptoethanol, 0.01% Brij-35, 5% glycerol, 1 mg/ml BSA; • Haspin: 15 mM MOPS, 0.75 mM EDTA, 0.0075% Brij-35, 3.75% Glycerol, 150 mM NaCl, 0.1% β-mercaptoethanol, 1 mg/mLBSA; • CDKL4, CLK2, PIM1, TRB2: […], 1 mM EDTA, 0.01% Brij-35, 5% Glycerol, 0.1% β-mercaptoethanol, 1 mg/mL BSA.
(§3) All compounds were prepared to 50x final assay concentration in 100% DMSO. This working stock of the compound was added to the assay well as the first component in the reaction, followed by the remaining components as detailed in the general assay protocols below. There was no pre-incubation step between the compound and the kinase prior to initiation of the reaction.
(§4) CDKL4(h) was incubated with 8 mM MOPS pH 7.0, 0.2 mM EDTA, 250 µM RRRFRPASPLRGPPK (SEQ ID NO. 1), 10 mM magnesium acetate and γ-^33P-ATP (specific activity and concentration as required). The reaction was initiated by the addition of the Mg/ATP mix. After incubation for 120 minutes at room temperature, the reaction was stopped by the addition of phosphoric acid to a concentration of 0.5%. An aliquot of the stopped reaction was spotted onto a filter and washed four times for 4 minutes in 0.425% phosphoric acid and once in methanol prior to drying and scintillation counting.
(§5) Kinase activity data were expressed as the percent remaining kinase activity in tested samples compared to the vehicle (DMSO) reactions. The compounds were tested at the following concentrations: 1 nM, 3 nM, 10 nM, 30 nM, 100 nM, 300 nM, 1000 nM, 3000 nM, and 10 000 nM; IC50 values and curve fits were then obtained.

[2] = biological target: T2, Haspin (h) (Homo sapiens, UniProt Q8TF76); assay: radiometric kinase assay (KinaseProfiler, Eurofins), Haspin; settings: in vitro radiometric kinase assay, tested at 1 nM to 10 000 nM, no pre-incubation; read-out: inhibitory activities (IC50 values) Haspin
T2 construct: purchased Eurofins (KinaseProfiler)
T2 sequence (Q8TF76 1-798): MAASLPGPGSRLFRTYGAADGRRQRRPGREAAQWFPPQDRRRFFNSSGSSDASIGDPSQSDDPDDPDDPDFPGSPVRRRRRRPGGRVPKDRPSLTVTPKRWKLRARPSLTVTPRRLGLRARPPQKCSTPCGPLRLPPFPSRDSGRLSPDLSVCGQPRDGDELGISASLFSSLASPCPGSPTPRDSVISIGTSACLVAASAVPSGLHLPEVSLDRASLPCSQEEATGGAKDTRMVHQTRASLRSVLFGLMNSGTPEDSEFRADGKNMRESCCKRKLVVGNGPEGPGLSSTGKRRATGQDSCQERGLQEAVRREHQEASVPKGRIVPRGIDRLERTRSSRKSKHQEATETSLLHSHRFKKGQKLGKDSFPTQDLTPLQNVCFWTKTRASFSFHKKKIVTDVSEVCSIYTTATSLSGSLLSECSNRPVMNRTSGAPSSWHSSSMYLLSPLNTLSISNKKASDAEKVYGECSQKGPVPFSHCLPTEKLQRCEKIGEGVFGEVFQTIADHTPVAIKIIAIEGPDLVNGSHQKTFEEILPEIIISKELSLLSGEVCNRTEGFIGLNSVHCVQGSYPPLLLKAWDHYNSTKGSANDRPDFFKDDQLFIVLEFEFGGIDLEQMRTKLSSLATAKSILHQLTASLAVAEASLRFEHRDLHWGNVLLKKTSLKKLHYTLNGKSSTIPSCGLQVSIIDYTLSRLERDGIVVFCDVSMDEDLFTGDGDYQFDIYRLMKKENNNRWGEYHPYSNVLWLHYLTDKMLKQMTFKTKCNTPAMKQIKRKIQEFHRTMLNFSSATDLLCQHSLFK
Procedure, shortened: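 Human Haspin in 8 mM MOPS pH 7.0 with 500 µM RARTLSFAEPG, 10 mM Mg acetate and γ-33P-ATP; compound added without preincubation. Reaction ran 40 min at room temperature, then filter-bound 33P was counted. Nine concentrations from 1 to 10 000 nM gave % remaining activity versus DMSO, and IC50 came from curve fit.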

[3] = biological target: T3, TAF1L(h) (Homo sapiens, UniProt Q8IZX4); assay: radiometric kinase assay (KinaseProfiler, Eurofins), TAF1L; settings: in vitro radiometric kinase assay, tested at 1 nM to 10 000 nM, no pre-incubation; read-out: inhibitory activities (IC50 values) TAF1L
T3 construct: purchased Eurofins (KinaseProfiler)
Experimental: as §1, §2, §3
as §4, with “TAF1L(h)” for “CDKL4(h)”, “20” for “8”, “Tris/HCl” for “MOPS”, “8.5,” for “7.0,”
as §5

T3 sequence (Q8IZX4 whole entry): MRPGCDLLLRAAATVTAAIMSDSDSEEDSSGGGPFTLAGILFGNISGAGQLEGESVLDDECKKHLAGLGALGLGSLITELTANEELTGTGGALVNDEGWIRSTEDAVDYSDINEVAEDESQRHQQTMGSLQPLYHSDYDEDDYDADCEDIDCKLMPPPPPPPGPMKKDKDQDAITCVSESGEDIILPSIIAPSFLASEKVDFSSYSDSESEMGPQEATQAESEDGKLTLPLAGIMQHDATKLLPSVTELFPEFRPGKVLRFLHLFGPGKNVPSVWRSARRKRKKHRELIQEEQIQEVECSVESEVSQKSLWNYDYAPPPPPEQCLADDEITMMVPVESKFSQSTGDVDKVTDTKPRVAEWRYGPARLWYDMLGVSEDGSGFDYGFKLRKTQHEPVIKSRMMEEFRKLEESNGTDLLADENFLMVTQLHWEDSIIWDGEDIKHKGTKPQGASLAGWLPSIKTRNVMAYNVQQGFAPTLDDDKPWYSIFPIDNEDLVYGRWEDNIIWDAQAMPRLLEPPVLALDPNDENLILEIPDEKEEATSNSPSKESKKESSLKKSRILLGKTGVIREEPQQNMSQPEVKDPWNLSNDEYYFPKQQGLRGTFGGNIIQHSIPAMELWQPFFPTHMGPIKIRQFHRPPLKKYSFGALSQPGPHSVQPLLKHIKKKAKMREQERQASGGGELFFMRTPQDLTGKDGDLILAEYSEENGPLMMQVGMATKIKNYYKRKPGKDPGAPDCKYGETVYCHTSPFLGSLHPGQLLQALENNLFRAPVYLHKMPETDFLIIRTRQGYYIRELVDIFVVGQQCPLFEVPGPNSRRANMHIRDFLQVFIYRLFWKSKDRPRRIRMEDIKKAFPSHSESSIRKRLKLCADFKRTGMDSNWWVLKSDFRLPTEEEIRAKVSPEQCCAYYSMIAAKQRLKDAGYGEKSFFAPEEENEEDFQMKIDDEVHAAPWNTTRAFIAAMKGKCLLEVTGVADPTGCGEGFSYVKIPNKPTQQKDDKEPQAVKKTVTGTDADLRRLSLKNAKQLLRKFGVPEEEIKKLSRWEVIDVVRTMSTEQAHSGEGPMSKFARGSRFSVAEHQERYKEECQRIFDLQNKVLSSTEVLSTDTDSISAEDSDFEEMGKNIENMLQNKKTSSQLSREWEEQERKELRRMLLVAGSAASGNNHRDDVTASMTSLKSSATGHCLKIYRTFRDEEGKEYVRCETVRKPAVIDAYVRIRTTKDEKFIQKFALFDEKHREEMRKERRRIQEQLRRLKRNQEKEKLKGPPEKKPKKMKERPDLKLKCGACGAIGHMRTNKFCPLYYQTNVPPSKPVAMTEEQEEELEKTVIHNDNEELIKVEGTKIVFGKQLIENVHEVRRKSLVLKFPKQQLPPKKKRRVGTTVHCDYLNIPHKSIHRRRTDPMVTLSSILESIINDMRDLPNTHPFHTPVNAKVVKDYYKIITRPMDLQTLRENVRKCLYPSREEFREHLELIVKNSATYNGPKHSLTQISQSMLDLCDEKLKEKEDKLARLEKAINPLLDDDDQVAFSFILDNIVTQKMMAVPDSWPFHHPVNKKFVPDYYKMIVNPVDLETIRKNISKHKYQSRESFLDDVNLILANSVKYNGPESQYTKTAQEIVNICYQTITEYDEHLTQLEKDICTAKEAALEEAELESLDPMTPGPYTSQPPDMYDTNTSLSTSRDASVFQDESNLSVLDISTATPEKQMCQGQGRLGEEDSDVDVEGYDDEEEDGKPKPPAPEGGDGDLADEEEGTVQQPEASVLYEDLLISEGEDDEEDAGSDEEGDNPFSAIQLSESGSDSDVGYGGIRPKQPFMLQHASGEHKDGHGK
T1 sequence (Q5MAI5 whole entry): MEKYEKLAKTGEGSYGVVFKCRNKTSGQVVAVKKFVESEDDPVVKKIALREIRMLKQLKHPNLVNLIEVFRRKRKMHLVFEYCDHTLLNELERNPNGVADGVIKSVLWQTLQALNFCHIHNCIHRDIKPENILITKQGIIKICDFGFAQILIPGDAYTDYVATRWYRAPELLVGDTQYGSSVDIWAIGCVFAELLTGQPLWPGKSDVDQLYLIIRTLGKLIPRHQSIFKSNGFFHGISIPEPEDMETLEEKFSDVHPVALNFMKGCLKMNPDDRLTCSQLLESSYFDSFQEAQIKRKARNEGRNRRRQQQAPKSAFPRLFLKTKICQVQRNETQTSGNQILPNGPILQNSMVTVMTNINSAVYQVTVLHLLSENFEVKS

Compound | IC50 [1] [µM] | IC50 [2] [µM] | IC50 [3] [µM]
Fc1cc(-c2ccc3scc(-c4ccccc4)c3n2)cc(F)c1F [Preparative Example 122, 3-phenyl-5-(3,4,5-trifluorophenyl)thieno[3,2-b]pyridine] | 3 to 10 | 3 to 10 | 3 to 10
Cn1cc(-c2ccc3scc(-c4cnn(Cc5ccccc5)c4)c3n2)cn1 | 0.1 to 0.499 | 0.1 to 0.499 | 0.1 to 0.499
